Laboratory results reported in patent US20260285853A1, “COMPOUNDS AND METHODS FOR MODULATING SPLICING” (REMIX THERAPEUTICS INC., priority 2023, published 2026).
Where a name gives a salt, the structure may show the parent alone. Read-outs that look alike come from different tables or passages of the source.

Assays:
Assay type in all cases: cell-based
[1] = test system: MYB mRNA; assay: Splicing RT-qPCR assay (THP), Table 2A
[2] = test system: SH-SY5Y (human neuroblastoma) cells; assay: Cell viability, Cell Titer Glo 2.0 assay; details: read-out: Viability SHSY5Y.3 GI50
Summary of the method: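 SH-SY5Y neuroblastoma cells are exposed to test compounds for 72 hours at 37 °C and 5% CO2, with final DMSO held at 0.1%. Cell viability is then measured with the CellTiter-Glo 2.0 assay.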

[3] = test system: MYB mRNA; assay: Gene panel canonical junction qPCR assay, decrease in CJ mRNA, Table 3
Summary of the method: (§1)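 A673 cells were plated, left to adhere for 24 h, then dosed; K562 cells were plated in 96- or 384-well format and dosed directly. Both were incubated 24 h at 37 °C with an 11-point 3-fold series (top 10 uM final). Canonical junction mRNA was then read by cDNA synthesis and qPCR.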

[4] = test system: HTT mRNA; assay: as above
Summary of the method: as §1

[5] = test system: HTT mRNA; assay: Splicing RT-qPCR assay (THP), Table 2A
[6] = Table 2A, THP, MYB alternative junction (AJ) mRNA, read-out: MYB AJ (AC50, increase in alternative junction mRNA)
[7] = Table 2A, THP, MYB canonical junction (CJ) mRNA, read-out: MYB CJ (IC50, decrease in canonical junction mRNA)
[8] = decrease in CJ mRNA levels, canonical junction qPCR, gene panel
[9] = Table 2A, THP, HTT alternative junction (AJ) mRNA, read-out: HTT AJ (AC50, increase in alternative junction mRNA)
[10] = Table 2A, THP, HTT canonical junction (CJ) mRNA, read-out: HTT CJ (IC50, decrease in canonical junction mRNA)
[11] = Table 2A (THP), AJ mRNA increase, read-out: MYB AJ (increase in alternative junction mRNA, AC50)
[12] = Table 2A (THP), CJ mRNA decrease, read-out: MYB CJ (decrease in canonical junction mRNA, IC50)
[13] = decrease in canonical junction (CJ) mRNA, gene panel qPCR, Table 3
[14] = Table 2A (THP), AJ mRNA increase, read-out: HTT AJ (increase in alternative junction mRNA, AC50)
[15] = Table 2A (THP), CJ mRNA decrease, read-out: HTT CJ (decrease in canonical junction mRNA, IC50)

Row | SMILES | IC50 [1, 7] [µM] | GI50 [2] [µM] | IC50 [3, 8] [µM] | IC50 [4, 8] [µM] | IC50 [5, 10] [µM] | IC50 [1, 12] [µM] | IC50 [3, 13] [µM] | IC50 [4, 13] [µM] | IC50 [5, 15] [µM] | AC50 [1, 6] [µM] | AC50 [5, 9] [µM] | AC50 [1, 11] [µM] | AC50 [5, 14] [µM]
1 | COCc1cc2c(N3CCC(NC4CC4)CC3)ccc(C(=O)Nc3cc4cn(C)nc4cc3OC)n2n1 [Compound 621, 4-[4-(cyclopropylamino)-1-piperidyl]-2-(methoxymethyl)-N-(6-methoxy-2-methyl-indazol-5-yl)-pyrazolo[1,5-a]-pyridine-7-carboxamide] | 0.1 to 1 | 0.1 to 1 | 0.1 to 1 | 1 to 10 | 1 to 10 |  |  |  |  | < 0.1 | 0.1 to 1 |  | 
2 | C[C@H]1CN(c2ccc(C(=O)Nc3cc(F)c4nn(C)cc4c3)c3nc(N)sc23)C[C@H](C)N1 [Compound 700, 2-amino-7-[(3S,5S)-3,5-dimethylpiperazin-1-yl]-N-(7-fluoro-2-methyl-indazol-5-yl)-1,3-benzothiazole-4-carboxamide] | < 0.1 | 0.1 to 1 | < 0.1 | 0.1 to 1 | 0.1 to 1 |  |  |  |  | < 0.1 | 0.1 to 1 |  | 
3 | COc1nc2c(C(=O)Nc3cccc4c3nnn4C)ccc(N3C[C@H](C)N[C@@H](C)C3)c2s1 [Compound 740, 7-[(3S,5S)-3,5-dimethylpiperazin-1-yl]-2-methoxy-N-(1-methylbenzotriazol-4-yl)-1,3-benzothiazole-4-carboxamide] | > 10 | 1 to 10 | > 10 | 1 to 10 | 1 to 10 |  |  |  |  | > 10 | > 10 |  | 
4 | Cc1cn2cc(NC(=O)c3ccc(N4CCC(NC5CC5)CC4)c4cc(CO)nn34)nc2c(C)n1 [Compound 616, 4-[4-(cyclopropylamino)-1-piperidyl]-N-(6,8-dimethylimidazo[1,2-a]pyrazin-2-yl)-2-(hydroxymethyl) pyrazolo[1,5-a]-pyridine-7-carboxamide] | 1 to 10 | 1 to 10 | 1 to 10 | 1 to 10 | 1 to 10 |  |  |  |  | 1 to 10 | 1 to 10 |  | 
5 | CCNC1CCN(c2ccc(C(=O)Nc3cc(CCC(=O)N(C)C)c4nn(C)cc4c3)c3nn(C)cc23)CC1 [Compound 877] | > 10 | > 10 | > 10 | > 10 | > 10 |  |  |  |  | > 10 | > 10 |  | 
6 | COc1c(NC(=O)c2ccc(N3CCC(NC4CC4)CC3)c3cn(C)nc23)cn2cc(C)nc(C)c12 [Compound 457, 4-[4-(cyclopropylamino)-1-piperidyl]-N-(8-methoxy-1,3-dimethyl-pyrrolo[1,2-a]pyrazin-7-yl)-2-methyl-indazole-7-carboxamide] |  | 1 to 10 |  |  |  | 1 to 10 | 1 to 10 | 1 to 10 | 1 to 10 |  |  | 1 to 10 | 1 to 10
7 | COc1nc2c(C(=O)Nc3cc4cn(C)nc4c(F)c3O)ccc(N3C[C@H](C)N[C@@H](C)C3)c2s1 [Compound 761, 7-[(3S,5S)-3,5-dimethylpiperazin-1-yl]-N-(7-fluoro-6-hydroxy-2-methyl-indazol-5-yl)-2-methoxy-1,3-benzothiazole-4-carboxamide] | 0.1 to 1 | 1 to 10 | 0.1 to 1 | > 10 | > 10 |  |  |  |  | 0.1 to 1 | > 10 |  | 
8 | COc1cc2nn(C)cc2cc1NC(=O)c1ccc(N2CCC3(CCN3)CC2)c2cn(C)nc12 [Compound 540] |  | 1 to 10 |  |  |  | < 0.1 | < 0.1 | 1 to 10 | 1 to 10 |  |  | < 0.1 | 1 to 10

The next lines start with results.

Row | IC50 [1, 7] [µM] | GI50 [2] [µM] | IC50 [3, 8] [µM] | IC50 [4, 8] [µM] | IC50 [5, 10] [µM] | IC50 [1, 12] [µM] | IC50 [3, 13] [µM] | IC50 [4, 13] [µM] | IC50 [5, 15] [µM] | SMILES | AC50 [1, 6] [µM] | AC50 [5, 9] [µM] | AC50 [1, 11] [µM] | AC50 [5, 14] [µM]
9 | > 10 | 1 to 10 | > 10 | > 10 | > 10 |  |  |  |  | Cc1cn2cc(NC(=O)c3ccc(N4CCC(NC5CC5)CC4)c4cn(C)nc34)nc2c(Cn2ccnn2)n1 [Compound 803] | > 10 | > 10 |  | 
10 | 1 to 10 | > 10 | 1 to 10 | > 10 | > 10 |  |  |  |  | COc1nc2c(N3CCC(NC4CC4)CC3)ccc(C(=O)Nc3cn4cc(C)nc(C)c4n3)c2o1 [Compound 680, 4-(4-(cyclopropylamino)-piperidin-1-yl)-N-(6,8-dimethylimidazo-[1,2-a]-pyrazin-2-yl)-2-methoxy-benzo[d]-oxazole-7-carboxamide] | 1 to 10 | > 10 |  | 
11 |  | 1 to 10 |  |  |  | 0.1 to 1 | 0.1 to 1 | > 10 | > 10 | CCNC1CCN(c2ccc(C(=O)Nc3cn4cc(CF)nc(C)c4n3)c3nn(C)cc23)CC1 [Compound 350, 4-[4-(ethylamino)-1-piperidyl]-N-[6-(fluoromethyl)-8-methyl-imidazo[1,2-a]pyrazin-2-yl]-2-methyl-indazole-7-carboxamide 2,2,2-trifluoroacetic acid] |  |  | 0.1 to 1 | > 10
12 |  | < 0.1 |  |  |  | < 0.1 | < 0.1 | < 0.1 | < 0.1 | CCNC1CCN(c2cc(F)c(C(=O)Nc3cn4cc(C)nc4c(F)c3OCC)c3nn(C)cc23)CC1 [Compound 343, N-(7-ethoxy-8-fluoro-2-methylimidazo [1,2-a]pyridin-6-yl)-4-(4-(ethylamino)piperidin-1-yl)-6-fluoro-2-methyl-2H-indazole-7-carboxamide hydrochloride] |  |  | < 0.1 | < 0.1
13 | 0.1 to 1 | 1 to 10 | 0.1 to 1 | 1 to 10 | 1 to 10 |  |  |  |  | Cc1cn2c(N3CCC(NC4CC4)CC3)ccc(C(=O)Nc3cc(CNS(C)(=O)=O)c4nn(C)cc4c3)c2n1 [Compound 839] | 0.1 to 1 | 1 to 10 |  | 
14 | 1 to 10 | 1 to 10 | 1 to 10 | 1 to 10 | 1 to 10 |  |  |  |  | Cc1cn2cc(NC(=O)c3ccc(N4CCNCC4)c4c3OCO4)cc(F)c2n1 [Compound 642, N-(8-fluoro-2-methyl-imidazo[1,2-a]pyridin-6-yl)-7-piperazin-1-yl-1,3-benzodioxole-4-carboxamide] | 1 to 10 | 1 to 10 |  | 
15 | 1 to 10 | 1 to 10 | 1 to 10 | 1 to 10 | 1 to 10 |  |  |  |  | COc1nc(NC(=O)c2c(F)cc(N3CCC(NC4CC4)CC3)c3nc(C)sc23)cn2cc(C)nc12 [Compound 664, 4-[4-(cyclopropylamino)-1-piperidyl]-6-fluoro-N-(8-methoxy-2-methylimidazo-[1,2-a]pyrazin-6-yl)-2-methyl-1,3-benzothiazole-7-carboxamide] | 1 to 10 | 1 to 10 |  | 
16 |  | 1 to 10 |  |  |  | > 10 | > 10 | > 10 | > 10 | CCNC1CCN(c2ccc(C(=O)Nc3cc(Oc4ccccc4Cl)c4nc(C)cn4c3)c3nn(C)cc23)CC1 [Compound 313, N-[8-(2-chlorophenoxy)-2-methylimidazo-[1,2-a]pyridin-6-yl]-4-[4-(ethylamino)-1-piperidyl]-2-methyl-indazole-7-carboxamide] |  |  | 1 to 10 | > 10
